From the NIST ThermoML archive (doi:10.1016/j.fluid.2016.06.011)

Conditions: Liquid; for vapor or sublimation pressure: Closed cell (Static) method; for mass density: 101.33 kPa, Vibrating tube method

OCC(F)(F)C(F)(F)C(F)(F)C(F)(F)F [2,2,3,3,4,4,5,5,5-nonafluoropentan-1-ol]
Conditions | mass density [kg/m3] | vapor or sublimation pressure [kPa]
278.14 K | – | 0.2236
278.15 K | 1689.58 | –
279.15 K | 1687.71 | –
280.15 K | 1685.83 | –
281.15 K | 1683.95 | –
282.15 K | 1682.07 | –
283.1 K | – | 0.3363
283.15 K | 1680.18 | –
284.15 K | 1678.29 | –
285.15 K | 1676.39 | –
286.15 K | 1674.48 | –
287.15 K | 1672.58 | –
288.07 K | – | 0.502
288.15 K | 1670.67 | –
289.15 K | 1668.76 | –
290.15 K | 1666.84 | –
291.15 K | 1664.91 | –
292.15 K | 1662.98 | –
293.06 K | – | 0.7329
293.15 K | 1661.05 | –
294.15 K | 1659.11 | –
295.15 K | 1657.16 | –
296.15 K | 1655.22 | –
297.15 K | 1653.26 | –
298.09 K | – | 1.07
298.15 K | 1651.3 | –
299.15 K | 1649.34 | –
300.15 K | 1647.37 | –
301.15 K | 1645.39 | –
302.15 K | 1643.41 | –
303.1 K | – | 1.531
303.15 K | 1641.42 | –
304.15 K | 1639.43 | –
305.15 K | 1637.43 | –
306.15 K | 1635.43 | –
307.15 K | 1633.42 | –
308.06 K | – | 2.152
308.15 K | 1631.4 | –
309.15 K | 1629.38 | –
310.15 K | 1627.35 | –
311.15 K | 1625.32 | –
312.15 K | 1623.28 | –
313.02 K | – | 2.979
313.15 K | 1621.23 | –
314.15 K | 1619.17 | –
315.15 K | 1617.12 | –
316.15 K | 1615.05 | –
317.15 K | 1612.98 | –
317.98 K | – | 4.071
318.15 K | 1610.9 | –
319.15 K | 1608.81 | –
320.15 K | 1606.72 | –
321.15 K | 1604.62 | –
322.15 K | 1602.52 | –
322.99 K | – | 5.496
323.15 K | 1600.4 | –
324.15 K | 1598.29 | –
325.15 K | 1596.16 | –
326.15 K | 1594.03 | –
327.15 K | 1591.88 | –
327.95 K | – | 7.315
328.15 K | 1589.74 | –
329.15 K | 1587.59 | –
330.15 K | 1585.42 | –
331.15 K | 1583.26 | –
332.15 K | 1581.08 | –
333.15 K | 1578.9 | –
334.15 K | 1576.7 | –
335.15 K | 1574.51 | –
336.15 K | 1572.3 | –
337.15 K | 1570.09 | –
338.15 K | 1567.87 | –
339.15 K | 1565.64 | –
340.15 K | 1563.41 | –
341.15 K | 1561.17 | –
342.15 K | 1558.91 | –
343.15 K | 1556.65 | –
344.15 K | 1554.39 | –
345.15 K | 1552.11 | –
346.14 K | 1549.83 | –
347.15 K | 1547.45 | –
348.15 K | 1545.15 | –
349.15 K | 1542.85 | –
350.15 K | 1540.53 | –
351.15 K | 1538.2 | –
352.15 K | 1535.87 | –
353.15 K | 1533.52 | –

OCC(F)(F)C(F)(F)C(F)(F)C(F)(F)C(F)(F)F [2,2,3,3,4,4,5,5,6,6,6-undecafluorohexan-1-ol]
Conditions | mass density [kg/m3] | vapor or sublimation pressure [kPa]
278.14 K | – | 0.0688
278.15 K | 1746.4 | –
279.15 K | 1744.56 | –
280.15 K | 1742.69 | –
281.15 K | 1740.82 | –
282.15 K | 1738.95 | –
283.1 K | – | 0.1098
283.15 K | 1737.07 | –
284.15 K | 1735.19 | –
285.15 K | 1733.3 | –
286.15 K | 1731.41 | –
287.15 K | 1729.52 | –
288.08 K | – | 0.1712
288.15 K | 1727.62 | –
289.15 K | 1725.71 | –
290.15 K | 1723.81 | –
291.15 K | 1721.89 | –
292.15 K | 1719.98 | –
293.08 K | – | 0.2615
293.15 K | 1718.06 | –
294.15 K | 1716.13 | –
295.15 K | 1714.2 | –
296.15 K | 1712.27 | –
297.15 K | 1710.32 | –
298.13 K | – | 0.3944
298.15 K | 1708.38 | –
299.15 K | 1706.43 | –
300.15 K | 1704.47 | –
301.15 K | 1702.5 | –
302.15 K | 1700.54 | –
303.1 K | – | 0.5819
303.15 K | 1698.57 | –
304.15 K | 1696.59 | –
305.15 K | 1694.61 | –
306.15 K | 1692.62 | –
307.15 K | 1690.62 | –
308.06 K | – | 0.8405
308.15 K | 1688.62 | –
309.15 K | 1686.62 | –
310.15 K | 1684.61 | –
311.15 K | 1682.59 | –
312.15 K | 1680.57 | –
313.01 K | – | 1.205
313.15 K | 1678.54 | –
314.15 K | 1676.51 | –
315.15 K | 1674.47 | –
316.15 K | 1672.43 | –
317.15 K | 1670.38 | –
317.98 K | – | 1.708
318.15 K | 1668.32 | –
319.15 K | 1666.26 | –
320.15 K | 1664.19 | –
321.15 K | 1662.11 | –
322.15 K | 1660.03 | –
322.93 K | – | 2.349
323.15 K | 1657.95 | –
324.15 K | 1655.85 | –
325.15 K | 1653.75 | –
326.15 K | 1651.65 | –
327.15 K | 1649.54 | –
327.93 K | – | 3.25
328.15 K | 1647.42 | –
329.15 K | 1645.29 | –
330.15 K | 1643.16 | –
331.15 K | 1641.02 | –
332.15 K | 1638.87 | –
333.15 K | 1636.72 | –
334.15 K | 1634.57 | –
335.15 K | 1632.41 | –
336.15 K | 1630.23 | –
337.15 K | 1628.06 | –
338.15 K | 1625.88 | –
339.15 K | 1623.69 | –
340.15 K | 1621.49 | –
341.15 K | 1619.29 | –
342.15 K | 1617.08 | –
343.15 K | 1614.86 | –
344.15 K | 1612.64 | –
345.15 K | 1610.41 | –
346.15 K | 1608.17 | –
347.15 K | 1605.92 | –
348.15 K | 1603.67 | –
